{"source": "PubChem BioAssay (NCI)", "test_in_all_cases": "NCI-60 cell line screen, 48 h", "key": {"[1]": {"tested_on": "UACC-62 melanoma"}, "[2]": {"tested_on": "HOP-92 NSCLC"}, "[3]": {"tested_on": "MALME-3M melanoma"}, "[4]": {"tested_on": "A498 renal"}, "[5]": {"tested_on": "NCI-H460 lung"}, "[6]": {"tested_on": "M14 melanoma"}, "[7]": {"tested_on": "OVCAR-4 ovarian"}, "[8]": {"tested_on": "HL-60(TB) leukemia"}, "[9]": {"tested_on": "HT29 colon"}, "[10]": {"tested_on": "SW-620 colon"}, "[11]": {"tested_on": "KM20L2 colon"}, "[12]": {"tested_on": "OVCAR-3 ovarian"}, "[13]": {"tested_on": "DMS 273 small cell lung"}, "[14]": {"tested_on": "UO-31 renal"}, "[15]": {"tested_on": "KM12 colon"}, "[16]": {"tested_on": "EKVX NSCLC"}, "[17]": {"tested_on": "SF-295 CNS"}, "[18]": {"tested_on": "RPMI-8226 leukemia"}, "[19]": {"tested_on": "SNB-19 CNS"}, "[20]": {"tested_on": "NCI-H23 lung"}, "[21]": {"tested_on": "SK-MEL-28 melanoma"}, "[22]": {"tested_on": "SF-539 CNS"}, "[23]": {"tested_on": "SK-MEL-2 melanoma"}, "[24]": {"tested_on": "OVCAR-5 ovarian"}, "[25]": {"tested_on": "SNB-78 CNS"}, "[26]": {"tested_on": "IGROV1 ovarian"}, "[27]": {"tested_on": "MOLT-4 leukemia"}, "[28]": {"tested_on": "SK-OV-3 ovarian"}, "[29]": {"tested_on": "SK-MEL-5 melanoma"}, "[30]": {"tested_on": "LXFL 529 NSCLC"}, "[31]": {"tested_on": "HCT-116 colon"}, "[32]": {"tested_on": "TK-10 renal"}, "[33]": {"tested_on": "SF-268 CNS"}, "[34]": {"tested_on": "U251 CNS"}, "[35]": {"tested_on": "UACC-257 melanoma"}, "[36]": {"tested_on": "SNB-75 CNS"}, "[37]": {"tested_on": "ACHN renal"}, "[38]": {"tested_on": "HCT-15 colon"}, "[39]": {"tested_on": "NCI-H522 lung"}, "[40]": {"tested_on": "SN12C renal"}, "[41]": {"tested_on": "K-562 leukemia"}, "[42]": {"tested_on": "CCRF-CEM leukemia"}, "[43]": {"tested_on": "OVCAR-8 ovarian"}, "[44]": {"tested_on": "786-0 renal"}, "[45]": {"tested_on": "COLO 205 colon"}, "[46]": {"tested_on": "LOX IMVI melanoma"}, "[47]": {"tested_on": "HCC-2998 colon"}, "[48]": {"tested_on": "A549 NSCLC"}, "[49]": {"tested_on": "HOP-62 NSCLC"}, "[50]": {"tested_on": "DLD-1 colon"}}, "note": "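Assay format: 96-well plates, 48-hour exposure. GI50 is the concentration that inhibits growth by half. TGI: concentration producing complete growth inhibition.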", "data": [{"smiles": "N.N.N.N.O=S([O-])[O-].[Co+3].[N-]=[N+]=[N-]", "values": [{"measurement": "GI50", "setting": "[1]", "result": "> 100", "unit": "µM"}, {"measurement": "TGI", "setting": "[1]", "result": "> 100", "unit": "µM"}, {"measurement": "GI50", "setting": "[2]", "result": "> 100", "unit": "µM"}, {"measurement": "TGI", "setting": "[2]", "result": "> 100", "unit": "µM"}, {"measurement": "GI50", "setting": "[3]", "result": "> 100", "unit": "µM"}, {"measurement": "TGI", "setting": "[3]", "result": "> 100", "unit": "µM"}, {"measurement": "GI50", "setting": "[4]", "result": "> 100", "unit": "µM"}, {"measurement": "TGI", "setting": "[4]", "result": "> 100", "unit": "µM"}, {"measurement": "GI50", "setting": "[5]", "result": "> 100", "unit": "µM"}, {"measurement": "TGI", "setting": "[5]", "result": "> 100", "unit": "µM"}, {"measurement": "GI50", "setting": "[6]", "result": "> 100", "unit": "µM"}, {"measurement": "TGI", "setting": "[6]", "result": "> 100", "unit": "µM"}, {"measurement": "GI50", "setting": "[7]", "result": "> 100", "unit": "µM"}, {"measurement": "TGI", "setting": "[7]", "result": "> 100", "unit": "µM"}, {"measurement": "GI50", "setting": "[8]", "result": "> 100", "unit": "µM"}, {"measurement": "TGI", "setting": "[8]", "result": "> 100", "unit": "µM"}, {"measurement": "GI50", "setting": "[9]", "result": "> 100", "unit": "µM"}, {"measurement": "TGI", "setting": "[9]", "result": "> 100", "unit": "µM"}, {"measurement": "GI50", "setting": "[10]", "result": "> 100", "unit": "µM"}, {"measurement": "TGI", "setting": "[10]", "result": "> 100", "unit": "µM"}, {"measurement": "GI50", "setting": "[11]", "result": "> 100", "unit": "µM"}, {"measurement": "TGI", "setting": "[11]", "result": "> 100", "unit": "µM"}, {"measurement": "GI50", "setting": "[12]", "result": "> 100", "unit": "µM"}, {"measurement": "TGI", "setting": "[12]", "result": "> 100", "unit": "µM"}, {"measurement": "GI50", "setting": "[13]", "result": "> 100", "unit": "µM"}, {"measurement": "TGI", "setting": "[13]", "result": "> 100", "unit": "µM"}, {"measurement": "GI50", "setting": "[14]", "result": "> 100", "unit": "µM"}, {"measurement": "TGI", "setting": "[14]", "result": "> 100", "unit": "µM"}, {"measurement": "GI50", "setting": "[15]", "result": "> 100", "unit": "µM"}, {"measurement": "TGI", "setting": "[15]", "result": "> 100", "unit": "µM"}, {"measurement": "GI50", "setting": "[16]", "result": "> 100", "unit": "µM"}, {"measurement": "TGI", "setting": "[16]", "result": "> 100", "unit": "µM"}, {"measurement": "GI50", "setting": "[17]", "result": "> 100", "unit": "µM"}, {"measurement": "TGI", "setting": "[17]", "result": "> 100", "unit": "µM"}, {"measurement": "GI50", "setting": "[18]", "result": "> 100", "unit": "µM"}, {"measurement": "TGI", "setting": "[18]", "result": "> 100", "unit": "µM"}, {"measurement": "GI50", "setting": "[19]", "result": "> 100", "unit": "µM"}, {"measurement": "TGI", "setting": "[19]", "result": "> 100", "unit": "µM"}, {"measurement": "GI50", "setting": "[20]", "result": "> 100", "unit": "µM"}, {"measurement": "TGI", "setting": "[20]", "result": "> 100", "unit": "µM"}, {"measurement": "GI50", "setting": "[21]", "result": "> 100", "unit": "µM"}, {"measurement": "TGI", "setting": "[21]", "result": "> 100", "unit": "µM"}, {"measurement": "GI50", "setting": "[22]", "result": "> 100", "unit": "µM"}, {"measurement": "TGI", "setting": "[22]", "result": "> 100", "unit": "µM"}, {"measurement": "GI50", "setting": "[23]", "result": "> 100", "unit": "µM"}, {"measurement": "TGI", "setting": "[23]", "result": "> 100", "unit": "µM"}, {"measurement": "GI50", "setting": "[24]", "result": "> 100", "unit": "µM"}, {"measurement": "TGI", "setting": "[24]", "result": "> 100", "unit": "µM"}, {"measurement": "GI50", "setting": "[25]", "result": "> 100", "unit": "µM"}, {"measurement": "TGI", "setting": "[25]", "result": "> 100", "unit": "µM"}, {"measurement": "GI50", "setting": "[26]", "result": "> 100", "unit": "µM"}, {"measurement": "TGI", "setting": "[26]", "result": "> 100", "unit": "µM"}, {"measurement": "GI50", "setting": "[27]", "result": "> 100", "unit": "µM"}, {"measurement": "TGI", "setting": "[27]", "result": "> 100", "unit": "µM"}, {"measurement": "GI50", "setting": "[28]", "result": "> 100", "unit": "µM"}, {"measurement": "TGI", "setting": "[28]", "result": "> 100", "unit": "µM"}, {"measurement": "GI50", "setting": "[29]", "result": "> 100", "unit": "µM"}, {"measurement": "TGI", "setting": "[29]", "result": "> 100", "unit": "µM"}, {"measurement": "GI50", "setting": "[30]", "result": "> 100", "unit": "µM"}, {"measurement": "TGI", "setting": "[30]", "result": "> 100", "unit": "µM"}, {"measurement": "GI50", "setting": "[31]", "result": "> 100", "unit": "µM"}, {"measurement": "TGI", "setting": "[31]", "result": "> 100", "unit": "µM"}, {"measurement": "GI50", "setting": "[32]", "result": "> 100", "unit": "µM"}, {"measurement": "TGI", "setting": "[32]", "result": "> 100", "unit": "µM"}, {"measurement": "GI50", "setting": "[33]", "result": "> 100", "unit": "µM"}, {"measurement": "TGI", "setting": "[33]", "result": "> 100", "unit": "µM"}, {"measurement": "GI50", "setting": "[34]", "result": "> 100", "unit": "µM"}, {"measurement": "TGI", "setting": "[34]", "result": "> 100", "unit": "µM"}, {"measurement": "GI50", "setting": "[35]", "result": "> 100", "unit": "µM"}, {"measurement": "TGI", "setting": "[35]", "result": "> 100", "unit": "µM"}, {"measurement": "GI50", "setting": "[36]", "result": 70.4, "unit": "µM"}, {"measurement": "TGI", "setting": "[36]", "result": "> 100", "unit": "µM"}, {"measurement": "GI50", "setting": "[37]", "result": "> 100", "unit": "µM"}, {"measurement": "TGI", "setting": "[37]", "result": "> 100", "unit": "µM"}, {"measurement": "GI50", "setting": "[38]", "result": "> 100", "unit": "µM"}, {"measurement": "TGI", "setting": "[38]", "result": "> 100", "unit": "µM"}, {"measurement": "GI50", "setting": "[39]", "result": 42.3, "unit": "µM"}, {"measurement": "TGI", "setting": "[39]", "result": "> 100", "unit": "µM"}, {"measurement": "GI50", "setting": "[40]", "result": "> 100", "unit": "µM"}, {"measurement": "TGI", "setting": "[40]", "result": "> 100", "unit": "µM"}, {"measurement": "GI50", "setting": "[41]", "result": "> 100", "unit": "µM"}, {"measurement": "TGI", "setting": "[41]", "result": "> 100", "unit": "µM"}, {"measurement": "GI50", "setting": "[42]", "result": "> 100", "unit": "µM"}, {"measurement": "TGI", "setting": "[42]", "result": "> 100", "unit": "µM"}, {"measurement": "GI50", "setting": "[43]", "result": "> 100", "unit": "µM"}, {"measurement": "TGI", "setting": "[43]", "result": "> 100", "unit": "µM"}, {"measurement": "GI50", "setting": "[44]", "result": "> 100", "unit": "µM"}, {"measurement": "TGI", "setting": "[44]", "result": "> 100", "unit": "µM"}, {"measurement": "GI50", "setting": "[45]", "result": "> 100", "unit": "µM"}, {"measurement": "TGI", "setting": "[45]", "result": "> 100", "unit": "µM"}, {"measurement": "GI50", "setting": "[46]", "result": "> 100", "unit": "µM"}, {"measurement": "TGI", "setting": "[46]", "result": "> 100", "unit": "µM"}, {"measurement": "GI50", "setting": "[47]", "result": "> 100", "unit": "µM"}, {"measurement": "TGI", "setting": "[47]", "result": "> 100", "unit": "µM"}, {"measurement": "GI50", "setting": "[48]", "result": "> 100", "unit": "µM"}, {"measurement": "TGI", "setting": "[48]", "result": "> 100", "unit": "µM"}, {"measurement": "GI50", "setting": "[49]", "result": "> 100", "unit": "µM"}, {"measurement": "TGI", "setting": "[49]", "result": "> 100", "unit": "µM"}, {"measurement": "GI50", "setting": "[50]", "result": "> 100", "unit": "µM"}, {"measurement": "TGI", "setting": "[50]", "result": "> 100", "unit": "µM"}]}]}
